Assay results taken from US20170119742A1, “MEDICAMENT FOR PREVENTING AND/OR TREATING STRESS DISEASES” (ONO PHARMACEUTICAL CO., LTD., priority 2014, published 2017).

What was measured:
brain TSPO = target: T1, brain TSPO (Rattus norvegicus, UniProt P16257); test: Comparison of radiotracer in rat ex vivo brain occupancy (Biological example 5); settings: po, rat cerebral cortex, 3 h; for receptor occupancy at 0.03 mg/kg: 0.03 mg/kg oral; for receptor occupancy at 0.1 mg/kg: 0.1 mg/kg oral; for receptor occupancy at 0.3 mg/kg: 0.3 mg/kg oral; for receptor occupancy at 1 mg/kg: 1 mg/kg oral; for receptor occupancy at 3 mg/kg: 3 mg/kg oral
T1 construct: measured by using brain (cerebral cortex and hippocampus) homogenates of the vehicle treated group and the compound of the present invention treated group; from tissue; host or cells: Wistar rat brain (cerebral cortex, hippocampus) homogenate
Description: Next, brain TSPO occupancy of the compound of the present invention was measured by using brain (cerebral cortex and hippocampus) homogenates of the vehicle treated group and the compound of the present invention treated group, using [^3H] PK11195 as a radiotracer. PK11195 was dissolved in dimethyl sulfoxide (DMSO) to prepare a 4 mmol/L solution. After preparing an ethanol solution of 100 nmol/L [^3H] PK11195 (PerkinElmer, Inc.), the solution was diluted 50-fold with 50 mmol/L HEPES buffer (Sigma-Aldrich Co.). In the case of determining the total binding amount of the radiotracer, 50 mmol/L HEPES (99 μL) and DMSO (1 μL) were added to Nunc MiniSorp (trade name, 12×75 mm, Thermo Fisher Scientific Inc.). In the case of determining the nonspecific binding amount of the radiotracer, 4 mmol/L PK11195 (1 μL) was substituted for DMSO (1 μL). The brain homogenate (50 μL) derived from cerebral cortex or the hippocampus was added to the tube. Then [^3H] PK11195 (50 μL) (cerebral cortex: final concentration 0.4532 nmol/L, hippocampus: final concentration 0.4520 nmol/L) was added and stirred, and the mixture was incubated for 90 minutes at 4° C. After completion of the reaction, ice-cold 50 mmol/L HEPES (2 mL) was added to the tube, and then the mixture was suction filtered on a glass fiber filter (GF/B, Brandel Inc.) which pretreated with 0.3 w/v % polyethyleneimine (Sigma-Aldrich Co.), to collect the brain homogenate. After drying the glass fiber filter, the absorbing part of the brain homogenate was transferred to a liquid scintillation vial. ACS-II scintillation cocktail (7 mL) was added to the liquid scintillation vial and stirred, and the radioactivity was measured by liquid scintillation counter (TRI-CARB2900TR, PerkinElmer Life and Analytical Sciences Inc.). Specific binding amount (dpm) of [3H] PK11195 in each brain homogenate was set to a value obtained by subtracting the nonspecific binding amount (dpm) from the total binding amount (dpm). TSPO occupancy (%) in cerebral cortex and hippocampus, of the compound of the present invention treated group, were calculated according to the following equation.
TSPO Occupancy (%)=(1−X/Y)×100
X: Specific binding amount (dpm) in each brain homogenate Y: Average value (dpm) of specific binding amount in control group
The vehicle (0.5 w/v % methylcellulose 400 cP solution) or the compound of the present invention (0.03, 0.1, 0.3, 1 or 3 mg/kg) was orally administered to male Sic: Wistar rats (Japan SLC, Inc., at the time of use: 11 weeks old). After 3 hours of the administration, in the same manner as Biological example 1, brain TSPO occupancy of the compound of the present invention relative to the specific binding of the vehicle control group was measured by measuring the specific binding amount of [^3H] PK11195 or [^3H] PBR28 (Sekisui Medical Co., Ltd.) of brain (cerebral cortex) homogenates (n=8 in each group). As a result, the average TSPO occupancy of 0.03, 0.1, 0.3, 1 and 3 mg/kg group of the compound of the present invention was […] in the cerebral cortex when [^3H] PK11195 was used as a radiotracer. On the other hand, the average TSPO occupancy was 6.5, 11.5, 40.4, 77.7 and 90.2% in the cerebral cortex when [^3H] PBR28 was used as a radiotracer. […] PBR28 or [^3H] PK11195 radiotracer.

[1] = Plasma concentration in monkeys (ex vivo occupancy study); settings: male, rhesus monkey, once on day 4
Description: The vehicle (0.5 w/v % methylcellulose 400 cP solution) or the compound of the present invention (0.4 or 1 mg/kg) was orally administered twice daily for 3 days, once on day 4 to male rhesus monkeys (Shin Nippon Biomedical Laboratories, Ltd., at the time of use: 4 to 6 kg). After 2 hours of the final administration, in the same manner as Biological example 1, brain TSPO occupancy of the compound of the present invention relative to the specific binding of the vehicle control group was measured by measuring the specific binding amount of [3H] PBR28 on brain (anterior cingulate cortex, caudate nucleus, amygdala, hippocampus and occipital lobe) homogenates (n=3 in vehicle control group, n=5 in each the compound of the present invention treated group). As a result, the average TSPO occupancy of brain 5 sites was 37.9 and 56.6% in 0.4 and 1 mg/kg group of the compound of the present invention. The average plasma concentration of the compound of the present invention was 23.9 and 154 ng/mL in 0.4 and 1 mg/kg group.

**Q.** For `COc1cc(Cl)ccc1[C@H]1c2[nH]c3cccc(F)c3c2C2(CC2)CN1C(C)=O` [the compound of the present invention, (1S)-2-acetyl-1-(4-chloro-2-methoxyphenyl)-5-fluoro-1,2,3,9-tetrahydrospiro[β-carboline-4,1′-cyclopropane]], which receptor occupancy at 0.03 mg/kg (brain TSPO; [3H] PBR28) is on record?
**A.** Its receptor occupancy at 0.03 mg/kg is 6.5%.

**Q.** What about the receptor occupancy at 0.03 mg/kg (brain TSPO; [3H] PK11195) of the same compound?
**A.** The receptor occupancy at 0.03 mg/kg was -1.3%.

**Q.** What about the receptor occupancy at 0.1 mg/kg (brain TSPO; [3H] PBR28) of the same compound?
**A.** The receptor occupancy at 0.1 mg/kg was 11.5%.

**Q.** What about the receptor occupancy at 0.1 mg/kg (brain TSPO; [3H] PK11195) of the same compound?
**A.** The receptor occupancy at 0.1 mg/kg was 14.9%.

**Q.** What about the receptor occupancy at 0.3 mg/kg (brain TSPO; [3H] PBR28) of the same compound?
**A.** Its receptor occupancy at 0.3 mg/kg is 40.4%.

**Q.** What about the receptor occupancy at 0.3 mg/kg (brain TSPO; [3H] PK11195) of the same compound?
**A.** Its receptor occupancy at 0.3 mg/kg is 48.1%.

**Q.** And the receptor occupancy at 1 mg/kg (brain TSPO; [3H] PBR28)?
**A.** The receptor occupancy at 1 mg/kg was 77.7%.

**Q.** And the receptor occupancy at 1 mg/kg (brain TSPO; [3H] PK11195)?
**A.** Its receptor occupancy at 1 mg/kg is 80.9%.

**Q.** And the receptor occupancy at 3 mg/kg (brain TSPO; [3H] PBR28)?
**A.** The receptor occupancy at 3 mg/kg was 90.2%.

**Q.** What about the receptor occupancy at 3 mg/kg (brain TSPO; [3H] PK11195) of the same compound?
**A.** The receptor occupancy at 3 mg/kg was 91.3%.

**Q.** What about the concentration at 2 h ([1]; 0.4 mg/kg oral twice daily 3 days) of the same compound?
**A.** The concentration at 2 h was 23.9 ng/mL.

**Q.** What about the concentration at 2 h ([1]; 1 mg/kg oral twice daily 3 days) of the same compound?
**A.** The concentration at 2 h was 154 ng/mL.
